Results published in patent US6706700B2, “14β,15β-methylene-17α-hydroxymethyl-androgens” (Akzo-Nobel, N.V., priority 1999, dated 2004).

Assays:
human androgen receptor = test: androgenic activity rating (procedures described above; which test underlies the rating is not stated); set-up: key: −: no androgenic activity found; +: androgenic activity found; ++: high androgenic activity; +++: excellent androgenic activity; prodrug; conditions: compounds of the invention; rating scheme of Example 18
Description: Androgenic activity can be measured in various ways. Thus, the potency of androgens can be determined in vitro using the cytoplasmic androgen receptor from human breast tumor cells (MCF-7 cell line); see Bergink, E. W. et al, Comparison of the receptor binding properties of nandrolone and testosterone under in vitro and in vivo conditions, J. Steroid Biochem. 22, 831-836 (1985). It is also possible to use Chinese hamster ovary (CHO) cells transfected with the human androgen receptor (incubation time 16 h, temperature 4° C.) and compared with the affinity of 5α-dihydrotestosterone [according to the procedure described by Bergink, E. W. et al, J. Steroid Biochem. 19, 1563-1570 (1983)]. The transactivative androgen activity of the compounds of the invention can be measured, e.g. in Chinese hamster ovary cells (CHO) transfected with the human androgen receptor (hAR), in combination with a mouse mammary tumor virus (MMTV), and luciferase receptor gene (incubation time 16 h, temperature 37° C.) and compared with the activity of 5α-dihydrotestosterone [according to the procedure described by Schoonen, W. G. E. J. et al, Analyt. Biochem. 261, 222-224 (1998)]. For the in vivo potency determination of androgens the classical Hershberger test can be used. In this test the androgenic (increase in prostate weight) and anabolic activities [increase of the musculus levator ani (MLA)] of a compound are tested in immature castrated rats after daily administration for 7 days; see Hershberger, L. G. et al, Myotrophic activity of 19-Nortestosterone and other steroids determined by modified levator ani muscle method, Proceedings of the society for experimental biology and medicine 83, 175-180 (1953). Additionally, the effect of an androgenic compound on LH suppression can be tested in mature castrated rats according to Kumar, N. et al, The biological activity of 7alpha-methyl-19-nortestosterone is not amplified in male reproductive tract as is that of testosterone, Endocrinology 130, 3677-3683 (1992).
The compounds according to the invention and four reference compounds were tested for drogenic activity (the procedures for which have been described above) and rated according the following scheme: […]

Compound | melting point | Res. (androgenic activity) (human androgen receptor)
C[C@@H]1CC2=CC(=O)CC[C@@H]2[C@H]2CC[C@]3(C)[C@H](CO)C[C@H]4C[C@]43[C@@H]21 [Example 1, (7α,14β,15β,17α)-17-(Hydroxymethyl)-7-methyl-14,15-methyleneestr-4-en-3-one] | 137 to 140 °C | +++
C[C@@H]1CC2=C(CCC(=O)C2)[C@H]2CC[C@]3(C)[C@H](CO)C[C@H]4C[C@]43[C@H]12 [Example 2, (7α,14,β15β,17α)-17-(Hydroxymethyl)-7-methyl-14,15-methyleneestr-5(10)-en-3-one] |  | +
C[C@@H]1CC2=CC(=O)CCC2=C2CC[C@]3(C)[C@H](CO)C[C@H]4C[C@]43[C@@H]21 [Example 3, (7α,14β,15β17α)-17-(Hydroxymethyl)-7-methyl-14,15-methyleneestra-4,9-dienes-3-one] |  | ++
CC1=C2C[C@@H](C)[C@@H]3[C@H](CC[C@]4(C)[C@H](CO)C[C@H]5C[C@@]534)[C@H]2CCC1=O [Example 4, (7α,14β,15β,17α)-17-(Hydroxymethyl)-4,7-dimethyl-14,15-methyleneestr-4-en-3-one] |  | ++
CC[C@@H]1CC2=CC(=O)CC[C@@H]2[C@H]2CC[C@]3(C)[C@H](CO)C[C@H]4C[C@]43[C@H]12 [Example 5, (7α,14β,15β,17α)-7-Ethyl-17-(hydroxymethyl)-14,15-methyleneestr-4-en-3-one] |  | ++
CC[C@]12CC[C@H]3[C@@H]([C@H](C)CC4=CC(=O)CC[C@@H]43)[C@]13C[C@@H]3C[C@H]2CO [Example 6, (7α,14β,15β,17α)-13-Ethyl-17-(hydroxymethyl)-7-methyl-14,15-methylenegon-4-en-3-one] |  | +++
C[C@H]1[C@H]2C[C@]23[C@H]2[C@H](CC[C@]3(C)[C@@H]1CO)[C@H]1CCC(=O)C=C1C[C@H]2C [Example 7, (7α,14β,15β16β,17α)-17-(Hydroxymethyl)-7,16-dimethyl-14,15-methyleneestra-4-en-3-one] |  | +
C[C@@H]1CC2=CC(=O)CC[C@@H]2[C@H]2CC[C@]3(C)[C@](O)(CO)C[C@H]4C[C@]43[C@@H]21 [Example 8, (7α,14β,15β,17β)-17-Hydroxy-17-(hydroxymethyl)-7-methyl-14,15-methyleneestr-4-en-3-one] |  | +
CC(=O)OC[C@]1(F)C[C@H]2C[C@]23[C@H]2[C@H](CC[C@]13C)[C@H]1CCC(=O)C=C1C[C@H]2C [Example 9a, (7α,14β,15β,17β)-17-[(Acetyloxy)methyl]-17-fluoro-7-methyl-14,15-methyleneestr-4-en-3-one] |  | ++
C[C@@H]1CC2=CC(=O)CC[C@@H]2[C@H]2CC[C@]3(C)[C@](F)(CO)C[C@H]4C[C@]43[C@@H]21 [Example 9b, (7α,14β,15β,17β)-17-fluoro-17-(hydroxymethyl)-7-methyl-14,15-methyleneestra-4-en-3-one] |  | ++
CC(=O)OC[C@]1(F)C[C@H]2C[C@]23[C@@H]2[C@H](C)CC4=C(CCC(=O)C4)[C@H]2CC[C@]13C [Example 10, (7α,14β,15β,17β)-17-[(Acetyloxy)methyl]-17-fluoro-7-methyl-14,15-methyleneestr-5(10)-en-3-one] |  | +
C[C@H](O)[C@@H]1C[C@H]2C[C@]23[C@H]2[C@H](CC[C@]13C)[C@H]1CCC(=O)C=C1C[C@H]2C [Example 11a, (7α,14β,15β,17α,20S)-20-Hydroxy-7-methyl-14,15-methylene-19-norpregn-4-en-3-one] |  | ++
C[C@@H]1CC2=CC(=O)CC[C@@H]2[C@H]2CC[C@]3(C)[C@H]([C@@H](C)O)C[C@H]4C[C@]43[C@@H]21 [Example 11b, (7α,14β,15β,17α,20R)-20-hydroxy-7-methyl-14,15-methylene-19-norpregn-4-en-3-one] |  | +
C[C@@H]1CC2=CC(=O)CC[C@@H]2[C@H]2CC[C@]3(C)[C@H](C(C)(C)O)C[C@H]4C[C@]43[C@@H]21 [Example 12, (7α,14β,15β,17α)-20-Hydroxy-7,20-dimethyl-14,15-methylene-19-norpregn-4-en-3-one] |  | +
CC[C@H](O)[C@@H]1C[C@H]2C[C@]23[C@H]2[C@H](CC[C@]13C)[C@H]1CCC(=O)C=C1C[C@H]2C [Example 13] |  | +
CC(=O)OC[C@@H]1C[C@H]2C[C@]23[C@H]2[C@H](CC[C@]13C)[C@H]1CCC(=O)C=C1C[C@H]2C [Example 14] |  | ++
C[C@@H]1CC2=C[C@@H](O)CC[C@@H]2[C@H]2CC[C@]3(C)[C@H](CO)C[C@H]4C[C@]43[C@@H]21 [Example 15a, (3β,7α,14β,15β,17α)-3-Hydroxy-7-methyl-14,15-methyleneestr-4-ene-17-methanol] |  | +++
C[C@@H]1CC2=C(CC[C@H](O)C2)[C@H]2CC[C@]3(C)[C@H](CO)C[C@H]4C[C@]43[C@H]12 [Example 15b1] |  | pro
C[C@@H]1CC2=C(CC[C@@H](O)C2)[C@H]2CC[C@]3(C)[C@H](CO)C[C@H]4C[C@]43[C@H]12 [Example 15b2, (3α,7α,14β,15β,17α)-3-Hydroxy-7-methyl-14,15-methyleneestr-5(10)-ene-17-methanol] |  | Pro
C[C@@H]1CC2=C[C@@H](O)CC[C@@H]2[C@H]2CC[C@]3(C)[C@](O)(CO)C[C@H]4C[C@]43[C@@H]21 [Example 15c1, (3β,7α,14β,15β,17β)-3,17-Dihydroxy-7-methyl-14,15-methyleneestr-4-ene-17methanol] |  | +
C[C@@H]1CC2=C[C@H](O)CC[C@@H]2[C@H]2CC[C@]3(C)[C@](O)(CO)C[C@H]4C[C@]43[C@@H]21 [Example 15c2, (3α,7α,15β,17β)-3,17-Dihydroxy-7-methyl-14,15-methyleneestr-4-ene-17-methanol] |  | +
